Assay [1] relates to Staphylococcus aureus. As to the kind of experiment: Inhibition of Staphylococcus aureus FabG using acetoacetyl-CoA as substrate assessed as NADPH level at 300 uM by ELISA.
The test system of assay [2] is Staphylococcus aureus. As to the kind of experiment: Antibacterial activity against methicillin-resistant Staphylococcus aureus CCARM 3167. In kind it is functional.
The next assay concerns Bacillus cereus. Briefly: Antibacterial activity against Bacillus cereus KCTC 1661. In kind it is functional.
For assay [3], the system named is Staphylococcus aureus. Briefly: Antibacterial activity against quinolone-resistant Staphylococcus aureus CCARM 3505. In kind it is functional.
The test system of assay [4] is Staphylococcus aureus. Briefly: Antibacterial activity against Staphylococcus aureus RN4220. In kind it is functional.
The subject of assay [5] is Staphylococcus aureus. As to the kind of experiment: (§1) Inhibition of Staphylococcus aureus FabI-mediated trans-2-octenoyl N-acetylcysteamine reduction assessed as NADPH level by ELISA.
Assay [6] can be described thus: as §1.

Values after ≈ are worked out from the molar mass of the structure shown. Active and inactive are the calls of the source. The calls are words filed in the database; no cut-off is given here.

What is called MIC is the lowest concentration that inhibits growth of the organism. Low values mean a more susceptible organism, high ones a less susceptible organism. Broadly, the IC50 is the concentration at which inhibition is half-maximal.

On to `COc1cc(O)c2c(=O)oc3cc(O)c(O)cc3c2c1`, for which the inhibition entry in the assay on Staphylococcus aureus [1] was “inactive”. In addition, the MIC against Staphylococcus aureus [2], in the assay with Bacillus cereus, against Staphylococcus aureus [3] and in the assay on Staphylococcus aureus [4] was 8 µg/mL (≈ 29.2 µM) each time. Also, the inhibition entry in the assay with Staphylococcus aureus [5] is “Dose-dependent effect”. In assay [6], the IC50 was 85.4 µM.

For the compound `COc1cc(O)c2c(c1)[C@@]1(OC2=O)C(C)=CC(=O)[C@]12C(=O)c1c(O)c(O)cc3oc(=O)c4c(O)cc(OC)c2c4c13` (relative stereo), the inhibition result in the assay with Staphylococcus aureus [1] is “inactive”. Further, the MIC against Staphylococcus aureus [2], in the assay with Bacillus cereus, in the assay with Staphylococcus aureus [3] and against Staphylococcus aureus [4] was 32 µg/mL (≈ 57.3 µM) in each case. Also, the inhibition result in the assay with Staphylococcus aureus [5] is “Dose-dependent effect”. The IC50 in assay [6] came out at 16.1 µM.

Take `Oc1cc(Cl)ccc1Oc1ccc(Cl)cc1Cl` [TRICLOSAN]: the MIC against Staphylococcus aureus [2], against Bacillus cereus, against Staphylococcus aureus [3] and against Staphylococcus aureus [4] was 0.01 µg/mL (≈ 0.0345 µM) each time.

On to `COc1cc(O)c2c(=O)oc3cc(O)c(O)c(-c4c(O)c(O)cc5oc(=O)c6c(O)cc(OC)cc6c45)c3c2c1` [VERRULACTONE A], for which the minimal inhibitory concentration (MIC) in the assay with Staphylococcus aureus [2], in the assay with Bacillus cereus, with Staphylococcus aureus [3] and in the assay with Staphylococcus aureus [4] was 8 µg/mL (≈ 14.6 µM) in each case. The IC50 in assay [6] is 0.92 µM.

On to `COc1cc(O)c2c(=O)oc3c(-c4c(O)c(O)cc5oc(=O)c6c(O)cc(OC)cc6c45)c(O)c(O)cc3c2c1` [VERRULACTONE B], for which the MIC against Staphylococcus aureus [2], against Bacillus cereus, in the assay with Staphylococcus aureus [3] and against Staphylococcus aureus [4] was 8 µg/mL (≈ 14.6 µM) throughout. For the same compound, the IC50 in assay [6] was determined as 1.41 µM.

The values above are taken from ChEMBL document CHEMBL3098038, “Verrulactone C with an unprecedented dispiro skeleton, a new inhibitor of Staphylococcus aureus enoyl-ACP reductase, from Penicillium verruculosum F375” (Bioorg Med Chem Lett, 2014).
